This is an account of results in patent US5719279A, “Asymmetrically substituted xanthines” (Boehringer Ingelheim KG, priority 1992, dated 1998).

Test [1] relates to CF PAC cells. Briefly: efflux of chloride ions in CF PAC cells (preliminary investigations). The following applies: activity of A1-antagonists in CF PAC cells. It counts as cell-based, human (patients suffering from cystic fibrosis). An excerpt: Cystic fibrosis--also known as mucoviscidosis--is a hereditary disorder caused by a genetic defect on a certain chromosome. Only homozygotic carriers of the feature succumb to the disease. The genetic defects leads to the .dysfunction of exocrine glands. As a result of increased production and greater viscosity of the secretions of the mucous glands in the bronchi, severe complications may arise in the respiratory tract. Preliminary investigations have shown that A1 -antagonists increase the efflux of chloride ions, e.g..in CF PAC cells. The cells come from a pancreas adenocarcinoma cell line which was isolated from patients suffering from cystic fibrosis (CF).

Test [2] concerns the target T1, human A1 adenosine receptor (Homo sapiens, UniProt P30542).
T1 sequence (P30542 1-326): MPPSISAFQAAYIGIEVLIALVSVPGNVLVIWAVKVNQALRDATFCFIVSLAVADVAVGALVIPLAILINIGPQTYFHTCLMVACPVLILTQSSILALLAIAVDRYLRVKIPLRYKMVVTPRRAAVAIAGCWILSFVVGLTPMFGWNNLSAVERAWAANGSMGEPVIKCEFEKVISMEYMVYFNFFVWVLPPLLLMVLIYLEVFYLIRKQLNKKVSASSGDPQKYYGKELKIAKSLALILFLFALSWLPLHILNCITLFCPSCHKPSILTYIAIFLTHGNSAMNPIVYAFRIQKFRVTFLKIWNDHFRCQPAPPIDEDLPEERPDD
The test can be described thus: receptor binding, A1 adenosine receptor (analogously to Ensinger et al.). The following applies: Table Ia. As for the experimental part: The receptor binding values were determined analogously to Ensinger et al. in "Cloning and functional characterisation of human A1 adenosine receptor--Biochemical and Biophysical Communications, Vol 187, No. 2, 919-926, 1992".

The term Ki denotes the dissociation constant of the complex between target and ligand, obtained from inhibition or displacement. A low value points to a stronger hold on the target.

As to `Nc1nc(Cl)nc2c1ncn2[C@@H]1O[C@H](CO)[C@@H](O)[C@H]1O` [2-chloroadenosine], the “blockade of the chloride efflux activity by agonists” value in test [1] is given as “successfully blocked”. `CCCn1c(=O)c2[nH]c(C3CCCC3)nc2n(CCCC#N)c1=O` [Example 01, 3-(3-cyanopropyl)-8-cyclopentyl-1-propylxanthine]: the affinity in test [2] corresponds to a Ki of 7.5 nM. Same read-out and setting: in the case of `CCCn1c(=O)c2[nH]c(C3CCCC3)nc2n(CCCOC)c1=O` [Example 04, 8-cyclopentyl-3-(3-methoxypropyl)-1-propylxanthine] it was 8 nM; in that of `CCCn1c(=O)c2[nH]c(C3CCCC3)nc2n(CCO)c1=O` [Example 05, 8-cyclopentyl-3-(2-hydroxyethyl)-1-propylxanthine], 46.7 nM.

As to `CCCn1c(=O)c2[nH]c(C3CCCC3)nc2n(CCCO)c1=O` [Example 06, 8-cyclopentyl-3-(3-hydroxypropyl)-1-propylxanthine], affinity in test [2] was put at a Ki of 66.8 nM. The same measure, in the same setting: the result for `CCCn1c(=O)c2[nH]c(C3CCCC3)nc2n(CCOC(C)=O)c1=O` [Example 07, 8-cyclopentyl-3-(2-(methylcarbonyloxy)-ethyl)-1-propylxanthine] reads 2.7 nM. On the same count and under the same terms, the result for `CCCn1c(=O)c2[nH]c(C3CCCC3)nc2n(CCCOC(C)=O)c1=O` [Example 08, 8-cyclopentyl-3-(3-acetoxypropyl)-1-propylxanthine] reads 3.5 nM. In test [2], `CCCn1c(=O)c2[nH]c(C3CCCC3)nc2n(CCC(=O)OC)c1=O` [Example 10, 8-cyclopentyl-3-(2-methoxycarbonylethyl)-1-propylxanthine] registered a Ki of 3.1 nM. The Ki values of the last two compounds are within 1.5-fold of each other. Same read-out and setting: the result for `CCCn1c(=O)c2[nH]c(C3CCCC3)nc2n(CCC(N)=O)c1=O` [Example 11, 3-(2-carbamoylethyl)-8-cyclopentyl-1-propylxanthine] reads 4 nM; that for `CCCn1c(=O)c2[nH]c(C3CCCC3)nc2n(CCC(=O)N2CCOCC2)c1=O` [Example 14, 8-cyclopentyl-3-(2-(N-morpholinocarbonyl)-ethyl)-1-propylxanthine], 36.4 nM; that for `CCCn1c(=O)c2[nH]c(C3CCCC3)nc2n(CCC(C)O)c1=O` (stereo not shown) [Example 15, 8-cyclopentyl-3-(3-hydroxybutyl)-1-propylxanthine], 6.4 nM. Compound `CCCn1c(=O)c2[nH]c(C3CCCC3)nc2n(CC=NO)c1=O` [Example 17, 8-cyclopentyl-3-hydroximinoethyl-1-propylxanthine] yielded a Ki in test [2] of 3.8 nM. Same read-out and setting: the result for `CCCn1c(=O)c2[nH]c(C3CCCC3)nc2n(CCCN2CCOCC2)c1=O` [Example 19, 8-cyc lopentyl-3-(3-(N-morpholino)-propyl)-1-propylxanthine] reads 11.5 nM; that for `CCCn1c(=O)c2[nH]c(C3CCCC3)nc2n(CCc2ccc(O)cc2)c1=O` [Example 24, 8-cyclopentyl-3-(2-(p-hydroxyphenyl)-ethyl)-1-propylxanthine], 1.7 nM; that for `CCCn1c(=O)c2[nH]c(C3CCCC3)nc2n(CCc2ccc(OC(C)=O)cc2)c1=O` [Example 28, 8-cyclopentyl-3-(2-(p-(methylcarbonyloxy)-phenyl)-ethyl)-1-propylxanthine], 29.3 nM. `CCCn1c(=O)c2[nH]c(C3CCCC3)nc2n(CCCc2ccc(OCC(=O)OCC)cc2)c1=O` [Example 31, 8-cyclopentyl-3-(3-(p-(ethoxycarbonylmethyloxy)-phenyl)-propyl)-1-propylxanthine]: the inhibition constant (Ki) in test [2] was 9.1 nM. On the same count and under the same terms, in the case of `CCCn1c(=O)c2[nH]c(C3CCCC3)nc2n(CCSCCO)c1=O` [Example 47, 8-cyclopentyl-3-(2-(2-hydroxyethyl)-thioethyl)-1-propylxanthine] it was 2.1 nM; in that of `CCCn1c(=O)c2[nH]c(C3CCCC3)nc2n(CCCc2cccnc2)c1=O` [Example 52], 5 nM.

For `CCCn1c(=O)c2[nH]c(C3CCCC3)nc2n(CCc2ccncc2)c1=O` [Example 59], in test [2], the Ki amounted to 2 nM. In test [2], `CCCn1c(=O)c2[nH]c(C3CCCC3)nc2n(CCCC(N)=O)c1=O` [Example 60, 3-(3-(aminocarbonyl)-propyl)-8-cyclopentyl-1-propylxanthine] had a Ki of 3.8 nM.

The compound `CCCn1c(=O)c2[nH]c(C3CCCC3)nc2n(CCN2CCSCC2)c1=O` [Example 68] displayed a Ki in test [2] of 32.6 nM.

As for `CCCn1c(=O)c2[nH]c(C3CCCC3)nc2n(CCS(=O)(=O)CCO)c1=O` [Example 70, 8-cyclopentyl-3-(2-(2-hydroxyethyl)-sulphonylethyl)-1-propyl-xanthine], in test [2], the affinity corresponds to a Ki of 6.2 nM.
